Values of other authors, collected in US4698328A, “Method of increasing bone mass” (The General Hospital Corporation, priority 1986, dated 1987).

Conditions: osteoporosis in humans; Reeve et al. 1980

In the case of “hPTH (1-34): fragment of human parathyroid hormone: first thirty-four amino acid residues (SVSEIQLMHNLGKHLNSMERVEWLRKKLQDVHNF; Parathyroid hormone; UniProt P01270 32-65, looked up, fragment)”, the axial trabecular bone is listed as “considerable increase” and the “calcium retention, and hence total bone mass” value is listed as “improved in only about half of these patients”.
